Measurements: PubChem BioAssay (NCI)
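The compound was tested at five concentrations on cells cultured in 96-well plates, with a 48-hour exposure period. GI50 is the concentration that inhibits growth by half. TGI is the concentration that stops growth completely.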

Key:
Assay in all cases: DTP human tumour cell line panel, 48 h
HL-60(TB) leukemia = system: HL-60(TB) leukemia
HT29 colon = system: HT29 colon
MALME-3M melanoma = system: MALME-3M melanoma
UO-31 renal = system: UO-31 renal
SK-OV-3 ovarian = system: SK-OV-3 ovarian
HCT-15 colon = system: HCT-15 colon
DU-145 prostate = system: DU-145 prostate
MCF7 breast = system: MCF7 breast
DLD-1 colon = system: DLD-1 colon
LXFL 529 NSCLC = system: LXFL 529 NSCLC

Structure (SMILES) | TGI (HL-60(TB) leukemia) | TGI (HT29 colon) | TGI (MALME-3M melanoma) | TGI (UO-31 renal) | TGI (SK-OV-3 ovarian) | TGI (HCT-15 colon) | TGI (DU-145 prostate) | TGI (MCF7 breast) | TGI (DLD-1 colon) | TGI (LXFL 529 NSCLC) | GI50 (HL-60(TB) leukemia) | GI50 (HT29 colon) | GI50 (MALME-3M melanoma) | GI50 (UO-31 renal) | GI50 (SK-OV-3 ovarian) | GI50 (HCT-15 colon) | GI50 (DU-145 prostate) | GI50 (MCF7 breast)
CN(C)Cc1ccc(-c2cc3onc(-c4ccccc4)c3c(=O)n2C)cc1 | 4.56 µM | 29.8 µM | 72.5 µM | 26.6 µM | > 100 µM | 50.2 µM | 85.3 µM | > 100 µM | – | – | – | – | – | – | – | – | – | –
COC1C(OC(=O)c2ccc(C)[nH]2)C(O)C(Oc2ccc3c(O)c(NC(=O)c4c[nH]c(C(=O)Nc5c(O)c6ccc(OC7OC(C)(C)C(OC)C(OC(=O)c8ccc(C)[nH]8)C7O)c(C)c6oc5=O)c4C)c(=O)oc3c2C)OC1(C)C (stereo not given) | – | 16.1 µM | 5.02 µM | 2.94 µM | 4.58 µM | 7.06 µM | – | – | 6.08 µM | 8.03 µM | – | – | – | – | – | – | – | –
O=[N+]([O-])c1cccc(/C=N/NC2=CS(=O)(=O)C=C2)c1 | > 100 µM | > 100 µM | > 100 µM | > 100 µM | > 100 µM | > 100 µM | > 100 µM | > 100 µM | – | – | – | – | – | – | – | – | – | –
O=C(CCN1CCCC1)Nc1ccc2c(NCc3ccccc3)c3ccccc3nc2c1 | 2.8 µM | 1.7 µM | 1.99 µM | 4.05 µM | 2.56 µM | 6.97 µM | 1.51 µM | 1.18 µM | – | – | 0.587 µM | 0.324 µM | 0.605 µM | 1.55 µM | 0.43 µM | 1.86 µM | 0.394 µM | 0.286 µM
C/C(CC(=O)Nc1cccc(Cl)c1C)=N\NC(N)=S | > 100 µM | > 100 µM | > 100 µM | > 100 µM | > 100 µM | – | – | – | > 100 µM | > 100 µM | – | – | – | – | – | – | – | –
COc1ccc([C@H](CC(=O)O)N2CCN(CCCc3ccc4c(n3)NCCC4)C2=O)cn1 | > 100 µM | > 100 µM | > 100 µM | > 100 µM | > 100 µM | – | 12.5 µM | 0.902 µM | – | – | > 100 µM | 0.794 µM | > 100 µM | > 36.7 µM | > 100 µM | 0.311 µM | 0.951 µM | 0.247 µM
C#C[C@]1(O)CC[C@H]2[C@@H]3CC=C4c5sc(Nc6cc(F)ccc6F)nc5CC[C@]4(C)[C@H]3CC[C@@]21C | 7.96 µM | 8.5 µM | 2.97 µM | 2.35 µM | 10.2 µM | 4.84 µM | 3.44 µM | 3.26 µM | – | – | 2.54 µM | 2.24 µM | 1.4 µM | 1.14 µM | 2.78 µM | 1.53 µM | 1.63 µM | 1.5 µM
COc1ccccc1N=Nc1c(-c2ccccc2)nn(C(=O)CC(=O)Nc2cccc(C)c2)c1-c1ccccc1 | 38 µM | 33.3 µM | > 100 µM | > 100 µM | – | > 100 µM | – | – | > 100 µM | > 100 µM | – | – | – | – | – | – | – | –
CCO/C=C1\N=C(c2ccc(Cl)c(Cl)c2)OC1=O | > 100 µM | > 100 µM | > 100 µM | > 100 µM | – | > 100 µM | – | – | > 100 µM | > 100 µM | – | – | – | – | – | – | – | –
CCCCC(SC(=S)N1CCCC1)C(=O)Nc1nc(CC(=O)OCC)cs1 (stereo not given) | > 100 µM | > 100 µM | > 100 µM | > 100 µM | > 100 µM | > 100 µM | > 100 µM | > 100 µM | – | – | 25 µM | 21.8 µM | > 100 µM | 36.9 µM | 97.4 µM | 66.1 µM | 67.3 µM | 1.25 µM
COc1ccc(C(=O)Cn2c(C(=O)c3ccccc3)nc3ccccc32)cc1 | > 22.9 µM | > 100 µM | > 100 µM | > 100 µM | > 100 µM | > 100 µM | > 100 µM | > 100 µM | – | – | 0.916 µM | 1.25 µM | – | 13.3 µM | 6.58 µM | 1.24 µM | 4.61 µM | 1.35 µM
C#CC1(O)CCC2C3CCc4cc(Oc5nc(F)nc(-c6c7ccccc7c7n6CCS7)n5)ccc4C3CC[C@@]21C (stereo not given in full) | 54.5 µM | 73.7 µM | > 100 µM | 78.3 µM | – | 54.3 µM | – | – | > 100 µM | 57.3 µM | – | – | – | – | – | – | – | –
C=C1CC(CC)(CCN2C(=O)c3ccccc3C2=O)OC1=O (stereo not given) | > 100 µM | 37.3 µM | 27.3 µM | 36.2 µM | – | 31.6 µM | – | – | 80.7 µM | 27.1 µM | – | – | – | – | – | – | – | –
C[C@H]1[C@H](C)N1CC(O)Cn1ccnc1[N+](=O)[O-] (stereo not given in full) | > 100 µM | > 100 µM | > 100 µM | > 100 µM | > 100 µM | > 100 µM | > 100 µM | > 100 µM | – | – | – | – | – | – | – | – | – | –
NC(=N\N=C/c1ccc(O)cc1)/C(N)=N\N=C/c1ccc(O)cc1 | – | > 100 µM | > 100 µM | > 100 µM | > 100 µM | > 100 µM | > 100 µM | > 100 µM | – | – | 0.251 µM | > 100 µM | > 100 µM | 1.21 µM | 44.8 µM | – | 20.2 µM | > 100 µM
COC(C)(C)[C@@H](O)[C@H](O)C[C@H](C)C1=C2CC[C@@H]3[C@@]4(C)CC[C@@H](OC(C)=O)C(C)(C)[C@@H]4C[C@@H](OC4OC(COC(C)=O)C(O)C(O)C4O)[C@@]3(C)[C@]2(C)CC1 (stereo not given in full) | 16 µM | 16.9 µM | 29.4 µM | 26.9 µM | 28.7 µM | 23.8 µM | 28.5 µM | 12.4 µM | – | – | 3.6 µM | 5.08 µM | 15.2 µM | 13.6 µM | – | 11 µM | 15 µM | 2.62 µM
O=C1CCc2c(sc3[nH]c(=S)n(-c4cc(C(F)(F)F)cc(C(F)(F)F)c4)c(=O)c23)C1 | 1.21 µM | > 33.6 µM | 2.77 µM | 1.11 µM | 5.54 µM | 1.36 µM | > 40 µM | 16.4 µM | – | – | 0.304 µM | 0.939 µM | 0.462 µM | 0.292 µM | 0.947 µM | 0.338 µM | 0.775 µM | 0.447 µM
CC1=CC2C(C(O)CC3(C)C2CC(C)C32OCOC23COCO3)C2(C)C/C(=C/O)C(=O)C=C12 (stereo not given) | 4.63 µM | 5.01 µM | 3.58 µM | 3.04 µM | 6.42 µM | 5.07 µM | 5.81 µM | 10.1 µM | – | – | 2.1 µM | 1.79 µM | 1.84 µM | 1.52 µM | 2.73 µM | 1.97 µM | 2.57 µM | 2.69 µM
